Patent publication US12673942B2, “Azabicyclyl-substituted heterocycles as fungicides” (Bayer Aktiengesellschaft, priority 2020, dated 2026)

Legend:
[1] = system: Colletotrichum lindemuthianum; test: Colletotrichum lindemuthianum in vitro cell test; assay type: cell-based; settings: 144 h, 20 ppm of active ingredient, liquid culture, 6 days incubation, read-out: efficacy (inhibition of fungal growth)
Procedure: (§1) • Solvent: […] Fungicides were solubilized in DMSO and the solution used to prepare the required range of concentrations. The final concentration of DMSO used in the assay was 1%. A spore suspension of Colletotrichum lindemuthianum was prepared and diluted to the desired spore density. Fungicides were evaluated for their ability to inhibit spore germination and mycelium growth in liquid culture assay. The compounds were added in the desired concentration to the culture medium with spores. After 6 days incubation, fungi-toxicity of compounds was determined by spectrometric measurement of mycelium growth. Inhibition of fungal growth was determined by comparing the absorbance values in wells containing the fungicides with the absorbance in control wells without fungicides.

[2] = system: Alternaria alternata; test: Alternaria alternata in vitro cell test; assay type: cell-based; settings: 120 h, 20 ppm of active ingredient, liquid culture, 5 days incubation, read-out: efficacy (inhibition of fungal growth)
Procedure: as §1, with “≤1%.” for “1%.”, “Alternaria alternata” for “Colletotrichum lindemuthianum”, “5” for “6”

[3] = system: Fusarium culmorum; test: Fusarium culmorum in vitro cell test; assay type: cell-based; settings: 96 h, 20 ppm of active ingredient, liquid culture, 4 days incubation, read-out: efficacy (inhibition of fungal growth)
Procedure: • Solvent: DMSO • Culture medium: 14.6 g anhydrous D-glucose (VWR), 7.1 g Mycological Peptone (Oxoid), 1.4 g granulated Yeast Extract (Merck), QSP 1 liter • Inoculum: spore suspension
Fungicides were solubilized in DMSO and the solution used to prepare the required range of concentrations. The final concentration of DMSO used in the assay was ≤1%.
A spore suspension of Fusarium culmorum was prepared and diluted to the desired spore density.
Fungicides were evaluated for their ability to inhibit spore germination and mycelium growth in liquid culture assay. The compounds were added in the desired concentration to the culture medium with spores. After 4 days incubation, fungi-toxicity of compounds was determined by spectrometric measurement of mycelium growth. Inhibition of fungal growth was determined by comparing the absorbance values in wells containing the fungicides with the absorbance in control wells without fungicides.

[4] = system: Septoria tritici; test: Septoria tritici in vitro cell test; assay type: cell-based; settings: Zymoseptoria tritici, 168 h; 20 ppm of active ingredient; liquid culture, 7 days incubation; read-out: efficacy (inhibition of fungal growth)
Procedure: • Solvent: DMSO • Culture medium: 1 g KH2PO4 (VWR), 1 g K2HPO4 (VWR), 0.5 g Urea (VWR), 3 g KNO3 (Prolabo), 10 g saccharose (VWR), 0.5 g MgSO4, 7H2O (Sigma), 0.07 g CaCl2, 2H2O (Prolabo), 0.2 mg MnSO4, H2O (Sigma), 0.6 mg CuSO4, 5H2O (Sigma), 7.9 mg ZnSO4, 7H2O (Sigma), 0.1 mg H3BO3 (Merck), 0.14 mg NaMoO4, 2H2O (Sigma), 2 mg thiamine (Sigma), 0.1 mg biotine (VWR), 4 mg FeSO4, 7H2O (Sigma), QSP 1 liter • Inoculum: spore suspension Fungicides were solubilized in DMSO and the solution used to prepare the required range of concentrations. The final concentration of DMSO used in the assay was 1%. A spore suspension of Septoria tritici was prepared and diluted to the desired spore density. Fungicides were evaluated for their ability to inhibit spore germination and mycelium growth in liquid culture assay. The compounds were added in the desired concentration to the culture medium with spores. […] Inhibition of fungal growth was determined by comparing the absorbance values in wells containing the fungicides with the absorbance in control wells without fungicides.

[5] = Measurement of Log P values by HPLC on reversed phase columns (EEC directive 79/831 Annex V.A8); assay type: physicochemical; settings: method [a]: LC-UV, acidic range, 0.1% formic acid in water and acetonitrile as eluent
Procedure: Measurement of Log P values as provided herein was performed according to EEC directive 79/831 Annex V.A8 by HPLC (High Performance Liquid Chromatography) on reversed phase columns with the following methods: • ^[a] Log P value is determined by measurement of LC-UV, in an acidic range, with 0.1% formic acid in water and acetonitrile as eluent (linear gradient from 10% acetonitrile to 95% acetonitrile). • ^[b] Log P value is determined by measurement of LC-UV, in a neutral range, with 0.001 molar ammonium acetate solution in water and acetonitrile as eluent (linear gradient from 10% acetonitrile to 95% acetonitrile). • ^[c] Log P value is determined by measurement of LC-UV, in an acidic range, with 0.1% phosphoric acid and acetonitrile as eluent (linear gradient from 10% acetonitrile to 95% acetonitrile).
If more than one Log P value is available within the same method, all the values are given and separated by “+”. […]

[6] = system: Pyricularia oryzae; test: microbe, parasite or virus in culture; assay type: cell-based; settings: 120 h, read-out: efficacy (inhibition of fungal growth)

| Structure (SMILES) | inhibition at 20 ppm [1] [%] | inhibition at 20 ppm [2] [%] | inhibition at 20 ppm [3] [%] | inhibition at 20 ppm [4] [%] | chromatographic logP [5] | inhibition at 20 ppm [6] [%] |
| --- | --- | --- | --- | --- | --- | --- |
| Cc1ccc(C[C@@H]2CON=C(c3c(Oc4cccc(C5CC5)c4F)cnc4ccccc34)N2)c(C)c1 (racemic) [Compound I-017] | ≥ 70 | ≥ 70 | ≥ 70 | ≥ 70 | 4.51 | ≥ 70 |
| Cc1ccc(C[C@@H]2CON=C(c3c(Oc4cccc(Br)c4F)cnc4ccccc34)N2)c(C)c1 (racemic) [Compound I-019] | ≥ 70 | ≥ 70 | ≥ 70 | ≥ 70 | 4.33 | ≥ 70 |
| C#Cc1cccc(Oc2cnc3ccccc3c2C2=NOC[C@@H](Cc3ccc(C)cc3C)N2)c1 (racemic) [Compound I-016] | ≥ 70 | ≥ 70 | ≥ 70 | ≥ 70 | 4.05 | ≥ 70 |
| C=Cc1cccc(Oc2cnc3ccccc3c2C2=NOC[C@@H](Cc3ccc(C)cc3C)N2)c1 (racemic) [Compound I-018] | ≥ 70 | ≥ 70 | ≥ 70 | ≥ 70 | 4.23 | ≥ 70 |
| FC(F)(F)c1cccc(Oc2nnc3ccccc3c2C2=NOC[C@@H](Cc3ccc(Br)cc3Cl)N2)c1 (racemic) [Compound I-007] | ≥ 70 | ≥ 70 | ≥ 70 | ≥ 70 | 4.44 | ≥ 70 |
| Cc1ccc(C[C@@H]2CON=C(c3c(Oc4cccc(C(F)(F)F)c4)cnc4ccoc34)N2)c(C)c1 (racemic) [Compound I-013] | ≥ 70 | ≥ 70 | ≥ 70 | ≥ 70 | 3.96 | ≥ 70 |
| Cc1ccc(C[C@@H]2CON=C(c3c(Oc4cccc(C5CC5)c4F)cnc4nccnc34)N2)c(C)c1 (racemic) [Compound I-014] | ≥ 70 | ≥ 70 | ≥ 70 | ≥ 70 | 3.5 | – |
| FC(F)(F)c1cccc(Oc2cnc3ccccc3c2C2=NC[C@@H](Cc3ccc(Cl)cc3)N2)c1 (racemic) [Compound I-015] | ≥ 70 | ≥ 70 | ≥ 70 | ≥ 70 | 2.46 | ≥ 70 |
| Cc1ccc(CC2CON=C(c3c(Oc4cccc(Cl)c4)nnc4ccccc34)N2)c(C)c1 (racemic) [Compound I-002, 3-(3-chlorophenoxy)-4-[(5RS)-5-(2,4-dimethylbenzyl)-5,6-dihydro-4H-1,2,4-oxadiazin-3-yl]cinnoline] | ≥ 70 | ≥ 70 | ≥ 70 | – | 3.96 | ≥ 70 |
| Cc1ccc(CC2CON=C(c3c(Oc4cccc(C5CC5)c4F)nnc4ccccc34)N2)c(C)c1 (racemic) [Compound I-006, 3-(3-cyclopropyl-2-fluorophenoxy)-4-[(5RS)-5-(2,4-dimethylbenzyl)-5,6-dihydro-4H-1,2,4-oxadiazin-3-yl]cinnoline] | ≥ 70 | ≥ 70 | ≥ 70 | ≥ 70 | 4.37 | ≥ 70 |
| C=Cc1ccc(C[C@@H]2CON=C(c3c(Oc4cccc(C(F)(F)F)c4)nnc4ccccc34)N2)c(Cl)c1 (racemic) [Compound I-009] | ≥ 70 | ≥ 70 | ≥ 70 | ≥ 70 | 4.44 | ≥ 70 |
